Test results from patent publication US11219625B2, “Inhibitors of N-linked glycosylation and methods using same” (YALE UNIVERSITY, priority 2015, dated 2022).

Legend:
[1] = system: cyclin D1; test: Cyclin D1 expression (qRT-PCR, western blot), PC9; assay type: cell-based, human
Protocol: (§1) FIGS. 5A-5G illustrate NGI-1 induces G1 arrest and senescence in EGFR addicted tumor cells. FIG. 5A illustrates cell cycle distribution of PC9 cells after 24 h NGI-1 treatment for 24 h determined by flow cytometry. […] FIG. 5B illustrates cell cycle distribution of A549 cells after 24 h NGI-1 treatment for 24 h determined by flow cytometry. FIG. 5C illustrates western blot time course of cyclin D1 expression in PC9 and A549 cells after NGI-1 treatment. FIG. 5D illustrates quantitative real-time PCR analysis of PC9 and A549 cells. A time course of cyclin D1 expression levels relative to GAPDH is represented. […] FIG. 5F illustrates senescence of PC9 cells explored by: cell autofluorescence, measured by flow cytometry using a detector for PE/YFP; lipofuscin accumulation, detected by confocal laser scanning microscopy using an excitation laser of 405 nm with acquired signals from spectrums of yellow 575-620 nm; and morphology changes, enlarged vs. flattened. […] Significance was calculated using a T test (*p<0.05. **p<0.01). FIG. 5G illustrates senescence of A549 cells explored by: cell autofluorescence, measured by flow cytometry using a detector for PE/YFP; lipofuscin accumulation, detected by confocal laser scanning microscopy using an excitation laser of 405 nm with acquired signals from spectrums of yellow 575-620 nm; and morphology changes, enlarged vs. flattened. […]

[2] = system: cyclin D1; test: Cyclin D1 expression (qRT-PCR, western blot), A549; assay type: cell-based, human
Protocol: as §1

[3] = system: OST; test: 35S metabolic labeling of pSAP and SHBG in Hela cells; assay type: cell-based
Protocol: FIGS. 2A-2I illustrate the finding that NGI-1 blocks OST function. FIG. 2A illustrates the western blots of glycosylated luciferase (Luc) after treatment with 1 μM tunicmaycin (Tn) and 10 μM NGI-1 in CHO-Lec15 and CHO-Lec35 cells with stable expression of ER-LucT. FIG. 2B is a […] illustrating FACE analysis of lipid linked oligosaccharides (LLOs). FIG. 2C is a series of western blots illustrating the effects of NGI-1 (5 μM) on free oligosaccharides (left panel) and N-linked glycans cleaved from peptides with Peptide-N-Glycosidase F (right panel). Carbohydrate size is indicated with glucose markers (G4-G7). FIG. 2D is a western blot illustrating cell free inhibition of the OST using a rabbit reticulocyte lysate translation system supplemented with canine pancreas rough microsomes (cRM). Saposin-DDK-His6 mRNA was translated for 60 min in the presence of ^35S methionine and the indicated concentration of NGI-1 or Tn. […] FIG. 2E comprises a series of western blots illustrating results from NGI-1 compared to siRNA knockdown of STT3A or STT3B. Glycoforms are represented by 0-5n and 0-2n respectively and average number of glycans per sample is reported for each condition. NC=non-coding siRNA, EH=endoglycosidase H treated. […] FIGS. 2G-2H: Dose response and quantitation of NGI-1 effect on pSAP (squares) and SHBG glycosylation (circles). […]

Structure (SMILES): Cc1cnc(NC(=O)c2cc(S(=O)(=O)N(C)C)ccc2N2CCCC2)s1 [NGI-1, 5-(N,N-Dimethylsulfamoyl)-N-(5-methylthiazol-2-yl)-2-(pyrrolidin-1-yl)benzamide]
- cyclin D1 reduced, protein level ([1]; PC9): 40%
- cyclin D1 reduced, mRNA level ([1]; PC9, p<0.01): 40%±15%
- cyclin D1 mRNA and protein levels [2]: not significantly affected
- glycosylation of pSAP and SHBG sites ([3]; 10 μM NGI-1, 24 h, compared to STT3A/STT3B knockdown): reduced glycosylation of all sites on pSAP and SHBG
- reversibility of OST inhibition ([3]; NGI-1 24 h prior to, during 20 min labeling, or both): reversible OST inhibitor
